Measured values from paper PMC5441103, “Antiviral activity of phenanthrenes from the medicinal plant Bletilla striata against influenza A virus” (BMC Complementary and Alternative Medicine, 2017).
Several values for one entry are separate records, joined by “and”; a condition that tells them apart may be missing. Equal values may be shown once. Read-outs that look alike come from different tables or passages of the source.

Columns and labels:
[1] = system: influenza virus A/Sydney/5/97 (H3N2); assay type: in vivo; conditions: for -log2 HA titer (mean ± SD): 9-day-old embryonated hen eggs, 100 EID50, 34 °C 48 h, allantoic fluid
[2] = system: influenza viral matrix protein mRNA; assay type: cell-based, influenza virus
[3] = system: influenza A/Sydney/5/97 (H3N2)
[4] = Cytotoxicity to MDCK cells (MTS-based assay); assay type: cell-based, canine; conditions: dog, read-out: CC50 (50% cytotoxic concentration)
Experimental: (§1) An MTS-based assay was performed to evaluate the cytotoxic effects of the test compounds on MDCK cells. Approximately 5 × 10^4 cells/well were seeded in 96-well microplates in MEM with 10% FBS at 37 °C in a humidified 5% CO2 incubator. When the monolayer was confluent, the cells were washed twice with PBS and then treated with compounds diluted in serum-free MEM. After incubation at 37 °C for 48 h, 20 μL of MTS was added to each well, and the cells were incubated for 2 h. The absorbance at 490 nm was determined using a microplate reader. The cell viability was calculated using the following formula: cell viability (%) = (drug treatment – background)/(control – background) × 100%. The half-maximal cytotoxic concentration (CC50) of the compounds was defined as the concentration that reduced the A490 of compound-treated cells to 50% of that of untreated cells.

[5] = system: influenza A/Sydney/5/97 (H3N2); experiment: in vitro; conditions: dog, MDCK cells
[6] = system: influenza A/Sydney/5/97 (H3N2); experiment: microbe, parasite or virus in culture; conditions: H3N2, MDCK
hemagglutinin (HA) = experiment: Hemagglutination inhibition assay (guinea pig RBC); conditions: 4 HAU virus, 1.5% guinea pig RBC
Experimental: The hemagglutination inhibition assay was used to study whether the compound could block the SA-containing receptors. The phenanthrenes from B. striata and oseltamivir phosphate were all tested Fresh guinea pig blood was collected at the Laboratory Animal Research Center of the Zhejiang Chinese Medical University, supplemented with 1.6% sodium citrate in sterile water. Then, red blood cells (RBC) were separated by centrifugation (800×g for 10 min at room temperature), washed three times with sterile PBS, and then suspended at a concentration of 1.5%. The least number of virus particles able to agglutinate the guinea pig RBC was determined in a serial virus dilution as four hemagglutination units (HAU). PBS instead of the compounds was used as the hemagglutinating positive control and no-virus RBC as the hemagglutinating negative control. Then, 50 μL of the compounds in serial twofold dilutions in PBS were mixed with 50 μL of 4 HAU influenza virus suspension, incubated for 1 h at 37 °C, mixed with an equal volume of 1.5% guinea pig RBC suspension for 1 h at room temperature, and then monitored for agglutination [10, 11].

MDCK cells = experiment: Cytotoxicity to MDCK cells (MTS-based assay); assay type: cell-based, canine; conditions: 48 h, read-out: CC50 (50% cytotoxic concentration)
Experimental: as §1

neuraminidase (NA) = neuraminidase (NA) (Influenza A virus, UniProt Q80DL0); conditions: for IC50: read-out: NA inhibitory activity IC50
Experimental: The neuraminidase inhibition assay was used to evaluate the effects of each compound on the neuraminidase activity of the influenza virus, according to the instructions of the Neuraminidase Inhibitors Screen Kit (Beyotime, China). Inhibition = [(C− S) / (C − C 0)] × 100%, where C is the fluorescence of the control (enzyme, buffer, and substrate) after 30 min of incubation, and C 0 is the fluorescence of the control (buffer and substrate). S is the fluorescence of the tested samples (enzyme, sample solution, and substrate) after incubation. Standard curves were made by plotting the percentage of fluorescence inhibition relative to the activity of virus controls against the log2 of concentrations. In addition, 10 μg/mL oseltamivir phosphate was used as the positive control. Then, 10 μL of NA in 70 μL of reaction buffer was mixed with equal volumes of twofold dilutions of the compounds. After a 2-min incubation at 37 °C, equal volumes (10 μL) of the substrate solution [2-(4-methylumbelliferyl)-α-D-N-acetylneuraminic acid sodium (4-MU-NANA)] were added, and the mixtures were further incubated for 30 min at 37 °C. The fluorescence intensity was measured using a fluorescence plate reader at an excitation wavelength of 322 nm and an emission wavelength of 450 nm. The 50% inhibitory concentration (IC50) was calculated by regression analysis with r ^2 ≥ 0.9, representing the mean values of three independent experiments [13, 29].

[7] = read-out: Simultaneous treatment IC50
[8] = Post-treatment SI (selective index; CC50mean/IC50mean), post-treatment
[9] = Simultaneous treatment SI (selective index; CC50mean/IC50mean), simultaneous treatment
[10] = 72 h, read-out: Simultaneous treatment IC50

Question: With “2,2′–dyhydroxyl-4,4′,7,7′-9′,10′-dihydro-1,6′-di-phenanthrene [Compound 11]” as the compound, how does the “Inhibition (%)” value ([1]; in vivo) read?
Answer: 0.00%

Question: What about the “Matrix protein mRNA transcription (normalized to GAPDH)” value [2] of the same compound?
Answer: stronger inhibitory effect

Question: What about the IC50 ([3]; read-out: Post-treatment IC50) of the same compound?
Answer: 35.2 ± 3.7 µM

Question: What about the IC50 [3, 7] of the same compound?
Answer: 38.6 ± 2.9 µM

Question: For `CCOC(=O)C1=C[C@@H](OC(CC)CC)[C@H](NC(C)=O)[C@@H](N)C1` [Oseltamivir, reference compound], which “-log2 HA titer (mean ± SD)” value ([1]; 0.01 mmol/egg) is on record?
Answer: 0.00 ± 0.00

Question: And the “Inhibition (%)” value ([1]; 0.01 mmol/egg, embryonated hen eggs, 100 EID50, 48 h)?
Answer: 100.00%

Question: What about the CC50 at 48 h [4] of the same compound?
Answer: 599 ± 62.1 µM

Question: What about the selectivity ratio at 72 h [5, 8] of the same compound?
Answer: 665

Question: What about the selectivity ratio at 72 h [5, 9] of the same compound?
Answer: 122

Question: And the IC50 [6, 10]?
Answer: 4.9 ± 0.9 µM

Question: What about the IC50 ([6]; read-out: Post-treatment IC50) of the same compound?
Answer: 0.9 ± 0.2 µM

Question: And the “Inhibition of hemagglutination by the influenza virus” value (hemagglutinin (HA))?
Answer: could not inhibit hemagglutination

Question: For `COc1cc(O)c2c(ccc3cc(O)ccc32)c1-c1c(OC)cc(O)c2c1ccc1c(OC)c(O)ccc12` [Compound 8, 4,4′,7,7′-tetrahydroxy-2,2′,8-trimethoxy-1,1′-di-phenanthrene], which CC50 (MDCK cells) is on record?
Answer: 111 ± 17.3 µM

Question: What about the “Post-treatment IC50” value [3] of the same compound?
Answer: - (The results showed that antiviral effects against A/Sydney/5/97(H3N2) were less than 50% inhibition)

Question: What about the “Simultaneous treatment IC50” value [3] of the same compound?
Answer: - (The results showed that antiviral effects against A/Sydney/5/97(H3N2) were less than 50% inhibition)

Question: What about the “NA inhibitory activity IC50” value (neuraminidase (NA)) of the same compound?
Answer: - (key: -: Inhibitory effect on the NA was less than 50%.)

Question: For `COc1cc(O)c2c(c1)CCc1cccc(O)c1-2` [Compound 9, 4,5-dyhydroxyl-2-methoxy-9,10-dihydro-phenanthrene], which CC50 (MDCK cells) is on record?
Answer: 160 ± 20.4 µM

Question: And the “Matrix protein mRNA transcription (normalized to GAPDH)” value [2]?
Answer: stronger inhibitory effect

Question: What about the “Post-treatment IC50” value [3] of the same compound?
Answer: - (The results showed that antiviral effects against A/Sydney/5/97(H3N2) were less than 50% inhibition)

Question: And the “Simultaneous treatment IC50” value [3]?
Answer: - (The results showed that antiviral effects against A/Sydney/5/97(H3N2) were less than 50% inhibition)

Question: What about the “NA inhibitory activity IC50” value (neuraminidase (NA)) of the same compound?
Answer: - (key: -: Inhibitory effect on the NA was less than 50%.)

Question: For `COc1ccc2c(ccc3c(-c4c(O)cc(OC)c5c4CCc4cc(O)ccc4-5)c(O)cc(OC)c32)c1` [Compound 2, 2,2,7′-trihydroxy-4,4′,7-trimethoxy-9′,10′-dihydro-1,1′-diphenanthrene], which CC50 (MDCK cells) is on record?
Answer: 67.9 ± 13.1 µM

Question: And the “Matrix protein mRNA transcription (normalized to GAPDH)” value [2]?
Answer: stronger inhibitory effect

Question: And the “Post-treatment SI (selective index; CC50mean/IC50mean)” value [3]?
Answer: 2.2

Question: What about the “Simultaneous treatment SI (selective index; CC50mean/IC50mean)” value [3] of the same compound?
Answer: 2.3

Question: And the IC50 ([3]; read-out: Post-treatment IC50)?
Answer: 31.4 ± 2.1 µM

Question: What about the IC50 [3, 7] of the same compound?
Answer: 28.6 ± 4.3 µM

Question: And the “NA inhibitory activity IC50” value (neuraminidase (NA))?
Answer: - (key: -: Inhibitory effect on the NA was less than 50%.)

Question: For `COc1cc(O)c2c(ccc3cc(O)ccc32)c1-c1c(OC)cc(O)c2c1ccc1c(OC)cccc12` [Compound 5, 4,4′,7′-trihydroxy-2,2′,8,-trimethoxy-1,1′-di-phenanthrene], which “Inhibition (%)” value ([1]; in vivo) is on record?
Answer: 0.00% and 6.90% and 3.45%

Question: And the CC50 (MDCK cells)?
Answer: 96.8 ± 15.6 µM

Question: What about the “Post-treatment IC50” value [3] of the same compound?
Answer: - (The results showed that antiviral effects against A/Sydney/5/97(H3N2) were less than 50% inhibition)

Question: And the “Simultaneous treatment IC50” value [3]?
Answer: - (The results showed that antiviral effects against A/Sydney/5/97(H3N2) were less than 50% inhibition)

Question: What about the “NA inhibitory activity IC50” value (neuraminidase (NA)) of the same compound?
Answer: - (key: -: Inhibitory effect on the NA was less than 50%.)

Question: For `COc1cc(O)c2c(ccc3cc(O)ccc32)c1-c1c(OC)cc(O)c2c1ccc1cc(O)ccc12` [Compound 6, 4,4′,7,7′-tetrahydroxy-2,2′-dimethoxy-1,1′-di-phenanthrene], which CC50 (MDCK cells) is on record?
Answer: 106 ± 21.2 µM

Question: What about the “Matrix protein mRNA transcription (normalized to GAPDH)” value [2] of the same compound?
Answer: stronger inhibitory effect

Question: And the “Post-treatment SI (selective index; CC50mean/IC50mean)” value [3]?
Answer: 2.8

Question: And the “Simultaneous treatment SI (selective index; CC50mean/IC50mean)” value [3]?
Answer: 3.1

Question: And the IC50 ([3]; read-out: Post-treatment IC50)?
Answer: 37.3 ± 3.2 µM

Question: What about the IC50 [3, 7] of the same compound?
Answer: 33.8 ± 2.7 µM

Question: What about the IC50 (neuraminidase (NA)) of the same compound?
Answer: 16.1 ± 2.6 µM

Question: For `COc1cc(O)cc2ccc3cc(O)ccc3c12` [Compound 12, 2,7-dyhydroxyl-4-methoxyphenanthrene], which CC50 (MDCK cells) is on record?
Answer: 116 ± 16.8 µM

Question: And the “Post-treatment IC50” value [3]?
Answer: - (The results showed that antiviral effects against A/Sydney/5/97(H3N2) were less than 50% inhibition)

Question: And the “Simultaneous treatment IC50” value [3]?
Answer: - (The results showed that antiviral effects against A/Sydney/5/97(H3N2) were less than 50% inhibition)

Question: And the “NA inhibitory activity IC50” value (neuraminidase (NA))?
Answer: - (key: -: Inhibitory effect on the NA was less than 50%.)

Question: Which CC50 (MDCK cells) does the source give for `COc1cc(O)cc2c1-c1ccc(O)cc1CC2` [Compound 1, 2,7-dyhydroxyl-4-methoxy-9,10-dihydro-phenanthrene] here?
Answer: 201 ± 18.6 µM

Question: And the “Matrix protein mRNA transcription (normalized to GAPDH)” value [2]?
Answer: stronger inhibitory effect

Question: And the “Post-treatment IC50” value [3]?
Answer: - (The results showed that antiviral effects against A/Sydney/5/97(H3N2) were less than 50% inhibition)

Question: And the “Simultaneous treatment IC50” value [3]?
Answer: - (The results showed that antiviral effects against A/Sydney/5/97(H3N2) were less than 50% inhibition)

Question: What about the IC50 (neuraminidase (NA)) of the same compound?
Answer: 72.6 ± 6.5 µM

Question: For `COc1ccc2c(ccc3c(-c4c(OC)cc(O)c5c4ccc4cc(O)ccc45)c(OC)cc(O)c32)c1` [Compound 7, 4,4′,7-trihydroxy-2,2′,7′-trimethoxy-1,1′-di-phenanthrene], which “Inhibition (%)” value ([1]; in vivo) is on record?
Answer: 0.00%

Question: What about the CC50 (MDCK cells) of the same compound?
Answer: 130 ± 15.6 µM

Question: What about the “Matrix protein mRNA transcription (normalized to GAPDH)” value [2] of the same compound?
Answer: stronger inhibitory effect

Question: What about the “Post-treatment SI (selective index; CC50mean/IC50mean)” value [3] of the same compound?
Answer: 4.1

Question: What about the “Simultaneous treatment SI (selective index; CC50mean/IC50mean)” value [3] of the same compound?
Answer: 4.5

Question: And the IC50 ([3]; read-out: Post-treatment IC50)?
Answer: 31.2 ± 2.2 µM

Question: What about the IC50 [3, 7] of the same compound?
Answer: 28.5 ± 2.8 µM

Question: And the “NA inhibitory activity IC50” value (neuraminidase (NA))?
Answer: - (key: -: Inhibitory effect on the NA was less than 50%.)

Question: With `COc1cc(O)c2c(ccc3c(OC)c(O)ccc32)c1-c1c(OC)cc(O)c2c1ccc1c(OC)c(O)ccc12` [Compound 4, 4,4′,7,7′-tetrahydroxy-2,2′,8,8′-tetramethoxy-1,1′-di-phenanthrene] as the compound, how does the CC50 (MDCK cells) read?
Answer: 80 ± 20.1 µM

Question: What about the “Matrix protein mRNA transcription (normalized to GAPDH)” value [2] of the same compound?
Answer: most efficient, even more powerful than oseltamivir

Question: And the “Post-treatment SI (selective index; CC50mean/IC50mean)” value [3]?
Answer: 4.3

Question: And the “Simultaneous treatment SI (selective index; CC50mean/IC50mean)” value [3]?
Answer: 5.5

Question: And the IC50 ([3]; read-out: Post-treatment IC50)?
Answer: 18.4 ± 3.1 µM

Question: And the IC50 [3, 7]?
Answer: 14.6 ± 2.4 µM

Question: What about the IC50 (neuraminidase (NA)) of the same compound?
Answer: 21.7 ± 2.9 µM

Question: Which results are given for `COc1ccc2c(ccc3c(-c4c(O)c(OC)cc5c4CCc4cc(O)cc(OC)c4-5)c(O)cc(OC)c32)c1` [Compound 3, 2,2′,7′-trihydroxy-3′,4,5′,7-tetramethoxy-9′,10′-dihydro-1,1′-di-phenanthrene]?
Answer: CC50 (MDCK cells): 50.3 ± 6.2 µM; Matrix protein mRNA transcription (normalized to GAPDH) [2]: stronger inhibitory effect; Post-treatment SI (selective index; CC50mean/IC50mean) [3]: 2.2; Simultaneous treatment SI (selective index; CC50mean/IC50mean) [3]: 2.5; IC50 ([3]; read-out: Post-treatment IC50): 22.6 ± 1.8 µM; IC50 [3, 7]: 20.4 ± 3.2 µM; IC50 (neuraminidase (NA)): 16.8 ± 1.6 µM

Question: With `COc1ccc2c(ccc3cc(O)cc(OC)c32)c1` [Compound 10, 2-hydroxyl-4,7-dimethoxyphenanthrene] as the compound, how does the “-log2 HA titer (mean ± SD)” value ([1]; 0.04 mmol/egg) read?
Answer: 6.00 ± 0.71

Question: And the “Inhibition (%)” value ([1]; 0.04 mmol/egg, embryonated hen eggs, 100 EID50, 48 h)?
Answer: 0.00%

Question: And the “-log2 HA titer (mean ± SD)” value ([1]; 0.08 mmol/egg)?
Answer: 3.20 ± 0.40

Question: And the “Inhibition (%)” value ([1]; 0.08 mmol/egg, embryonated hen eggs, 100 EID50, 48 h)?
Answer: 44.8% and 44.83%

Question: What about the CC50 at 48 h [4] of the same compound?
Answer: 142 ± 25 µM

Question: And the “Matrix protein mRNA transcription (normalized to GAPDH)” value [2]?
Answer: stronger inhibitory effect

Question: What about the selectivity ratio at 72 h [5, 8] of the same compound?
Answer: 3.4

Question: And the selectivity ratio at 72 h [5, 9]?
Answer: 3.3

Question: And the IC50 [6, 10]?
Answer: 43.3 ± 5.3 µM

Question: What about the IC50 ([6]; read-out: Post-treatment IC50) of the same compound?
Answer: 42.3 ± 3.9 µM
